Measurements taken from patent US7405220B2, “Pyrazolopyrimidines” (Hoffmann-La Roche Inc., priority 2004, dated 2008).
pIC50: −log10 of the molar value.

Columns and labels:
[1] = target: human cyclin E-Cdk2 (Homo sapiens, UniProt P24941); assay: Cdk2 FlashPlate kinase assay (Rb phosphorylation); assay type: biochemical; settings: recombinant cyclin E-Cdk2, Rb substrate, 1 μM ATP
Protocol: (§1) To determine inhibition of Cdk4, Cdk2 and Cdk1 activity, kinase assays were conducted using FlashPlate™ assays (NEN™-Life Science Products). FlashPlate assays were performed using recombinant human cyclin B-Cdk1, human cyclin E-Cdk2 or human cyclin D1-Cdk4 complexes. GST-cyclinE (GST-cycE), Cdk2, GST-cyclinB (GST-cycB), Cdk1, GST-Cdk4 and cyclin D1 (cycD1) cDNA clones in baculovirus vectors were provided by Dr. W. Harper at the Baylor College of Medicine, Houston, Tex. Proteins were co-expressed in High Five™ insect cells and the complex was purified on glutathione Sepharose resin (Pharmacia, Piscataway, N.J.) as previously described (Harper, J. W. et al. Cell 1993, 75, 805-816). A 6×-Histidine tagged truncated form of retinoblastoma (Rb) protein (amino acid 386-928) was used as the substrate for the cycD1-Cdk4, cycB-Cdk1 and the cycE-Cdk2 assays (the expression plasmid was provided by Dr. Veronica Sullivan, Department of Molecular Virology, Roche Research Centre, Welwyn Garden City, United Kingdom). The Rb protein is a natural substrate for phosphorylation by Cdk4, Cdk2 and Cdk1 (see Herwig and Strauss Eur. J. Biochem. Vol. 246 (1997) pp. 581-601 and the references cited therein).
(§2) The expression of the 62 Kd protein was under the control of an IPTG inducible promoter in an M15 E. coli strain. Cells were lysed by sonication and purification was carried out by binding lysates at pH 8.0 to a Ni-chelated agarose column pretreated with 1 mM imidazole. The resin was then washed several times with incrementally decreasing pH buffers to pH 6.0, and eluted with 500 mM imidazole. Eluted protein was dialysed against 20 mM HEPES pH 7.5, 30% glycerol, 200 mM NaCl, and 1 mM DTT. Purified Rb fusion protein stocks were quantitated for protein concentration, aliquoted, and stored at −70° C.
(§3) For all three kinase assays reported herein, 96-well FlashPlates were coated with Rb protein at 10 μg/ml, using 100 μl per well. Plates were incubated at 4° C. overnight or at room temperature for 3 hours on a shaker. To control for nonspecific phosphorylation, one row of wells was coated with 100 μl/well coating buffer (20 mM HEPES, 0.2 M NaCl). Plates were then washed twice with wash buffer (0.01% Tween 20 in phosphate-buffered saline). Compounds to be tested (“test compounds”) were added to the wells at 5× final concentration. Reactions were initiated by immediate addition of 40 μl reaction mix (25 mM HEPES, 20 mM MgCl2, 0.002% Tween 20, 2 mM DTT, 1 μM ATP, 4 nM 33P-ATP) and a sufficient amount of enzyme to give counts that were at least 10-fold above background. Plates were incubated at room temperature on a shaker for 30 minutes. Plates were washed four times with the wash buffer, sealed, and counted on the TopCount scintillation counter (Packard Instrument Co., Downers Grove, Ill.]. The percent inhibition of Rb phosphorylation, which is a measure of the inhibition of Cdk activity, was determined according to the following formula: […]
(§4) where “test compound” refers to the average counts per minute of the test duplicates, “nonspecific” refers to the average counts per minute when no CyclinD/Cdk4, etc., was added, and “total” refers to the average counts per minute when no compound was added. The IC50 value is the concentration of test compound that reduces by 50% the protein-kinase induced incorporation of the radiolabel under the test conditions described.

[2] = target: human cyclin D1-Cdk4 (Homo sapiens, UniProt P11802); assay: Cdk4 FlashPlate kinase assay (Rb phosphorylation); assay type: biochemical; settings: recombinant cyclin D1-Cdk4, Rb substrate, 1 μM ATP
Sequence of human cyclin D1-Cdk4 (P11802 whole entry): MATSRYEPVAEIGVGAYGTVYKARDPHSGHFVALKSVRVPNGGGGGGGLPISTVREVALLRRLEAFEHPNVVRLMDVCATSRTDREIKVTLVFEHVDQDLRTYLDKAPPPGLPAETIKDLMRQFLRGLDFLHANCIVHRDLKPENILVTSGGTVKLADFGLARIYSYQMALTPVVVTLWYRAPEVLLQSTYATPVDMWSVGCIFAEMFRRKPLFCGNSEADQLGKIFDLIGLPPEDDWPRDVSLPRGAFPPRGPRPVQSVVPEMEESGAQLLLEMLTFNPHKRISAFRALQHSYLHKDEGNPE
Sequence of human cyclin D1-Cdk4 (P24385 whole entry partner): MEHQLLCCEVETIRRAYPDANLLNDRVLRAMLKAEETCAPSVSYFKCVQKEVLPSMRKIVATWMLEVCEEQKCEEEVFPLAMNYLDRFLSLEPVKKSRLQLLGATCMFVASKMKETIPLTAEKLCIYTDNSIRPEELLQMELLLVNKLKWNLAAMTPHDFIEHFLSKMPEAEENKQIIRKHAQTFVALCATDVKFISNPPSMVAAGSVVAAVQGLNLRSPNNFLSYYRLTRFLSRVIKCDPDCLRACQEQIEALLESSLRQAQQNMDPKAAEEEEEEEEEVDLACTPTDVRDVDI
Protocol: as §1, §2, §3, §4

[3] = system: HCT116, a colorectal carcinoma cell line; assay: Tetrazolium dye (MTT) proliferation assay; assay type: cell-based; settings: Homo sapiens, HCT-116; HCT116 cells
Protocol: Proliferation was evaluated by the tetrazolium dye assay according to the procedure of Denizot and Lang (Denizot, F. and Lang, R. J Immunol Methods 1986, 89, 271-277). The cell line used was HCT116, a colorectal carcinoma cell line obtained from the American Type Cell Culture Collection (ATCC; Rockville, Md.). The cells were grown in McCoy's 5A medium supplemented with 10% FCS and L-glutamine.
Cells were plated at the appropriate seeding density to give logarithmic growth over the course of the assay in a 96-well tissue culture plate. Plates were incubated overnight at 37° C. in a humidified incubator with 5% CO2. The next day, test compounds were serially diluted to four times the final concentration in the appropriate medium containing 1.2% DMSO. One-fourth final volume of each dilution was added in duplicate to the plates containing cells. The same volume of 1.2% DMSO in medium was added to a row of “control wells” such that the final concentration of DMSO in each well was 0.3%. Wells to which no cells were added served as the “blank.” Wells to which no inhibitor was added served as “no inhibitor control.” The plates were) returned to the incubator, and at set time points (determined by their growth curves) plates were analyzed as described below.
3-(4,5-dimethylthiazole-2-yl)-2,5-diphenyl-2H-tetrazolium bromide (thiazolyl blue; MTT; Sigma) was added to each well to yield a final concentration of 1 mg/ml. Plates were returned to the incubator for 2.5-3 hours at 37° C. The MTT-containing medium was removed and the resulting formazan metabolite was solubilized in 100% ethanol with shaking for 15 minutes at room temperature. Absorbance readings were taken in a microtiter plate reader (Dynatech and Molecular Devices plate readers were used interchangeably) at a wavelength of 570 nm with a 650 nm reference. Percent inhibition (% INH) is calculated by subtracting the absorbance of the blank well from all wells, then subtracting the ratio of the average absorbance of each test duplicate (SAVE) by the average of the controls (CAVE) from 1.00. The final number is then multiplied by 100 (% INH=(1.00−SAVE/CAVE)×100). The concentration at which 50% inhibition of cell proliferation is obtained (the IC50) is determined from the linear regression of a plot of the logarithm of the concentration versus percent inhibition.

[4] = target: human cyclin B-Cdk1 (Homo sapiens, UniProt P06493); assay: Cdk1 FlashPlate kinase assay (Rb phosphorylation); assay type: biochemical; settings: recombinant cyclin B-Cdk1, Rb substrate, 1 μM ATP
Sequence of human cyclin B-Cdk1 (P06493 whole entry): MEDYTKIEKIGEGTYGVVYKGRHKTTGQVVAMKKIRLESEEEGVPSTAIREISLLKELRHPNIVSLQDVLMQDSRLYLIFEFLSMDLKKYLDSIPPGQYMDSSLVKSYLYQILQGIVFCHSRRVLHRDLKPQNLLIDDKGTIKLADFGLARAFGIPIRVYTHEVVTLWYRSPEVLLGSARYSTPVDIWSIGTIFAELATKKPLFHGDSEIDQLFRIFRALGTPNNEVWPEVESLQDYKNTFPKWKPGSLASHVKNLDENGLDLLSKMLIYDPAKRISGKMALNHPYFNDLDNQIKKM
Sequence of human cyclin B-Cdk1 (P14635 whole entry partner): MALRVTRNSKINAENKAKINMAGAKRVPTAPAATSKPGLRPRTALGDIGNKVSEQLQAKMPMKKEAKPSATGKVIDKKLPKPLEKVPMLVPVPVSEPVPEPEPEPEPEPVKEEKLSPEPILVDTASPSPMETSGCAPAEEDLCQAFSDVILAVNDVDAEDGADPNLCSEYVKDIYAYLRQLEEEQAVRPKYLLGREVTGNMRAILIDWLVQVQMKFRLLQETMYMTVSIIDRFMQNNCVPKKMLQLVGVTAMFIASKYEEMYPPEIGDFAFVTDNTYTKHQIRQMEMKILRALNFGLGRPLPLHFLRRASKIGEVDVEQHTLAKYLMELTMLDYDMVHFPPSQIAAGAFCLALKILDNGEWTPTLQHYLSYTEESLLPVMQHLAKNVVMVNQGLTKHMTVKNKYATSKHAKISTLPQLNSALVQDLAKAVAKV
Protocol: as §1, §2, §3, §4

For COc1ccc(F)cc1-c1n[nH]c2nc(NC3CCN(S(C)(=O)=O)CC3)ncc12 [Example 25, [3-(5-Fluoro-2-methoxy-phenyl)-1H-pyrazolo[3,4-d]pyrimidin-6-yl]-(1-methanesulfonyl-piperidin-4-yl)-amine], the pIC50 [1] was 7.11 and the pIC50 [2] was 7.38.

Fc1ccc(Nc2ncc3c(-c4c(F)cccc4F)n[nH]c3n2)cc1 [Example 33, [3-(2,6-Difluoro-phenyl)-1H-pyrazolo[3,4-d]pyrimidin-6-yl]-(4-fluoro-phenyl)-amine] gave a pIC50 [1] of 5.60 and a pIC50 [2] of 5.60.

COc1ccccc1-c1n[nH]c2nc(NCCO)ncc12 [Example 34, 2-[3-(2-Methoxy-phenyl)-1H-pyrazolo[3,4-d]pyrimidin-6-ylamino]-ethanol] showed a pIC50 [1] of 6.23 and a pIC50 [2] of 6.46.

COc1ccc(F)cc1-c1n[nH]c2nc(N[C@H]3CCN(S(C)(=O)=O)C[C@@H]3O)ncc12 [Example 27] gave a pIC50 [3] of 5.77, a pIC50 [1] of 6.56 and a pIC50 [2] of 8.40.

With COc1ccccc1-c1n[nH]c2nc(Nc3ccccc3)ncc12 [Example 38, [3-(2-Methoxy-phenyl)-1H-pyrazolo[3,4-d]pyrimidin-6-yl]-phenyl-amine] the pIC50 [1] was 6.56.

For CCOC(=O)N1CCC(Nc2ncc3c(-c4cccc(F)c4)n[nH]c3n2)CC1 [Example 43, 4-[3-(3-Fluoro-phenyl)-1H-pyrazolo[3,4-d]pyrimidin-6-ylamino]-piperidine-1-carboxylic acid ethyl ester; compound with trifluoro-acetic acid], the pIC50 [1] was 6.56.

In the case of CS(=O)(=O)N1CCC(Nc2ncc3cn[nH]c3n2)CC1 [Example 19], the pIC50 [3] was 5.04, the pIC50 [4] was 6.64 and the pIC50 [1] was 7.48.

With COc1ccc(Nc2ncc3c(-c4ccccc4OC)n[nH]c3n2)cc1 [Example 39, (4-Methoxy-phenyl)-[3-(2-methoxy-phenyl)-1H-pyrazolo[3,4-d]pyrimidin-6-y]-amine; compound with trifluoro-acetic acid] the pIC50 [1] was 6.56.

Molecule COc1ccccc1-c1n[nH]c2nc(NCCCCCN)ncc12 [Example 35, [3-(2-Methoxy-phenyl)-1H-pyrazolo[3,4-d]pyrimidin-6-yl]-pentane-1,5-diamine; compound with trifluoro-acetic acid] has a pIC50 [1] of 5.73 and a pIC50 [2] of 5.95.

Work on COc1ccccc1-c1n[nH]c2nc(Nc3ccc(S(N)(=O)=O)cc3)ncc12 [Example 32, 4-[3-(2-Methoxy-phenyl)-1H-pyrazolo[3,4-d]pyrimidin-6-ylamino]-benzenesulfonamide; compound with trifluoro-acetic acid] yielded a pIC50 [1] of 8.05 and a pIC50 [2] of 7.44.

Cc1n[nH]c2nc(NC3CCN(C)CC3)ncc12 [Example 23] gave a pIC50 [4] of 5.84 and a pIC50 [1] of 6.56.

COc1ccccc1-c1n[nH]c2nc(NCCCCCN(C)C)ncc12 [Example 37, N-[3-(2-Methoxy-phenyl)-1H-pyrazolo[3,4-d]pyrimidin-6-yl]-N,N-dimethyl-pentane-1,5-diamine; compound with trifluoro-acetic acid] was tested, and the pIC50 [1] was 6.56.

COc1ccccc1-c1n[nH]c2nc(NC3CCN(S(C)(=O)=O)CC3)ncc12 [Example 28] was tested, and the pIC50 [3] was 5.92, the pIC50 [4] was 6.97 and the pIC50 [1] was 7.74. For the same molecule, the pIC50 [2] was 7.85.

With COc1ccccc1Nc1ncc2c(-c3c(F)cccc3F)n[nH]c2n1 [Example 40, [3-(2,6-Difluoro-phenyl)-1H-pyrazolo[3,4-d]pyrimidin-6-yl]-(2-methoxy-phenyl)-amine; compound with trifluoro-acetic acid] the pIC50 [1] was 6.56.

Work on COc1ccccc1-c1n[nH]c2nc(NCCCN(C)C)ncc12 [Example 36, N′-[3-(2-Methoxy-phenyl)-1H-pyrazolo[3,4-d]pyrimidin-6-yl]-N,N-dimethyl-propane-1,3-diamine] yielded a pIC50 [1] of 6.56.

With Cc1n[nH]c2nc(NCCO)ncc12 [Example 42, 2-(3-Methyl-1H-pyrazolo[3,4-d]pyrimidin-6-ylamino)-ethanol; compound with trifluoro-acetic acid] the pIC50 [1] was 6.56.

CS(=O)(=O)N1CCC(Nc2ncc3c(-c4c(F)cccc4F)n[nH]c3n2)CC1 [Example 29, [3-(2,6-Difluoro-phenyl)-1H-pyrazolo[3,4-d]pyrimidin-6-yl]-(1-methanesulfonyl-piperidin-4-yl)-amine] showed a pIC50 [3] of 4.49, a pIC50 [4] of 6.06 and a pIC50 [1] of 6.56.

In the case of CS(=O)(=O)N1CCC(Nc2ncc3c(-c4ccccc4)n[nH]c3n2)CC1 [Example 30, (1-Methanesulfonyl-piperidin-4-yl)-(3-phenyl-1H-pyrazolo[3,4-d]pyrimidin-6-yl)-amine], the pIC50 [3] was 5.41, the pIC50 [4] was 6.58 and the pIC50 [1] was 6.75. The pIC50 [2] was 6.89.

In the case of COc1ccc(F)c(F)c1-c1n[nH]c2nc(NC3CCN(S(C)(=O)=O)CC3)ncc12 [Example 16, [3-(2,3-Difluoro-6-methoxy-phenyl)-1H-pyrazolo[3,4-d]pyrimidin-6-yl]-(1-methanesulfonyl-piperidin-4-yl)-amine], the pIC50 [3] was 5.35, the pIC50 [1] was 6.61 and the pIC50 [2] was 7.39.

CS(=O)(=O)N1CCC(Nc2ncc3c(-c4cccc(F)c4)n[nH]c3n2)CC1 [Example 31, [3-(3-Fluoro-phenyl)-1H-pyrazolo[3,4-d]pyrimidin-6-yl]-(1-methanesulfonyl-piperidin-4-yl)-amine] showed a pIC50 [3] of 4.52, a pIC50 [4] of 5.94 and a pIC50 [1] of 6.64. It also gave a pIC50 [2] of 7.73.

Cc1n[nH]c2nc(Nc3ccc(S(N)(=O)=O)cc3)ncc12 [Example 41, 4-(3-Methyl-1H-pyrazolo[3,4-d]pyrimidin-6-ylamino)-benzenesulfonamide; compound with trifluoro-acetic acid] showed a pIC50 [1] of 7.62.
